Each molecule was assayed against T1, human TGR5 (Homo sapiens, UniProt Q8TDU6) (assay: cAMP production assay in HEK293 cells stably expressing TGR5 (LANCE TR-FRET)). Details: 30 minutes stimulation, read-out: cAMP Production in 293-TGR5 Cells EC50.
T1 construct: expressed in transfected cells
T1 sequence (Q8TDU6 1-330): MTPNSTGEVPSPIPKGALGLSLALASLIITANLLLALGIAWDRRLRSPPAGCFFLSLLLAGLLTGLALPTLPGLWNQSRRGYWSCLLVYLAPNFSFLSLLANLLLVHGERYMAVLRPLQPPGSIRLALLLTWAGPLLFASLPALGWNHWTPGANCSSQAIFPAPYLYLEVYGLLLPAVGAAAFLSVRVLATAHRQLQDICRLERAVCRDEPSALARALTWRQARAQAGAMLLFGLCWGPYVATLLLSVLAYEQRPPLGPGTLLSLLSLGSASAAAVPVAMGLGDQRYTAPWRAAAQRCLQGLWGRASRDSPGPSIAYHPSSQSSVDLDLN
Format: cell-based
Method: HEK293 cells stably expressing TGR5 (HEK293-TGR5) were established by stably transfecting HEK-293 cells with an expression vector (pcDNA 3.1, Invetrogen) inserted with human TGR5 cDNA using Fugene6 (Roche, Indianapolis, Ind.) according to conventional methods. Cells were grown in DMEM (invitrogen, Carlsbad, Calif.) supplemented with 10% FBS, 1% penicillin/streptomycin under geneticin selection. The presence of TGR5 transcripts in these cells was confirmed using branched DNA (bDNA, Genospectra, Inc., Fremont Calif.) following the manufacturer's protocol and using specific probes for human TGR5. cAMP production assay was performed in high throughput 1536 well format using LANCE cAMP detection kit (Perkin Elmer Inc., Boston, Mass.) according to the manufacturer's protocol. Briefly, HEK293-TGR5 cells were harvested using non-enzymatic cell dissociation buffer (Invitrogen, Carlsbad, Calif.) and suspended in DMEM supplemented with 0.1% FBS at a density of 800,000 cells/ml. Alexa antibody was added to the cell suspension, and 4 ul of the mixture was dispensed in white opaque tissue culture treated Greiner 1536 well plates (USA Scientific, Inc., Ocala, Fla.). After an overnight incubation at 37 C in an atmosphere of 10% CO2 and 95% humidity, 1 ul of 5 mM IBMX (Sigma, St. Louis, Mo.) solution in DMEM was dispensed for a final concentration of 1 mM. Cells were then stimulated with test compounds for 30 minutes, after which time 5 ul of detection reagent was added and incubated for 1-7 hrs at room temperature. TR-FRET signal was detected using the Viewlux (Perkin Elmer Inc., Boston Mass.). EC50 values were determined using Graph Pad Prizm analysis (GraphPad Software, Inc). The EC50 values for a wide range of bile acids generated from this assay were in agreement with the values published in the scientific literature. […] The symbol (+) denotes an EC50 value of ≦10 μM while the symbol (−) denotes an EC50 value of >10 μM (see Table 1).

| EC50 [µM] | SMILES |
| --- | --- |
| ≤ 10 | COc1cc(-c2nc3ccccc3c(=O)n2NCc2ccc(Br)cc2)ccc1Cl [Example 74, 3-(4-Bromo-benzylamino)-2-(4-chloro-3-methoxy-phenyl)-3H-quinazolin-4-one] |
| ≤ 10 | O=c1c2ccccc2nc(-c2ccccc2)n1NCc1ccc(Br)cc1 [Example 104, 3-(4-bromobenzylamino)-2-phenylquinazolin-4(3H)-one] |
| ≤ 10 | O=c1c2ccccc2nc(-c2cccc(O)c2)n1NCc1ccc(Br)cc1 [Example 96, 3-(4-bromobenzylamino)-2-(3-hydroxyphenyl)quinazolin-4(3H)-one] |
| ≤ 10 | Cc1cc(-c2nc3ccccc3c(=O)n2NCc2ccc(Cl)cc2)ccc1F [Example 57, 3-(4-chlorobenzylamino)-2-(4-fluoro-3-methylphenyl)quinazolin-4(3H)-one] |
| ≤ 10 | O=c1c2ccccc2nc(-c2ccc(Cl)cc2)n1NCc1ccc(C(F)(F)F)cc1 [Example 52, 2-(4-chlorophenyl)-3-(4-(trifluoromethyl)benzylamino)quinazolin-4(3H)-one] |
| ≤ 10 | COc1cccc(-c2nc3ccccc3c(=O)n2NCc2ccc(Cl)cc2)c1 [Example 56, 3-(4-chlorobenzylamino)-2-(3-methoxyphenyl)quinazolin-4(3H)-one] |
| ≤ 10 | O=c1c2ccccc2nc(-c2ccc(F)cc2)n1NCc1ccc(C(F)(F)F)cc1 [Example 78, 2-(4-fluorophenyl)-3-(4-(trifluoromethyl)benzylamino)quinazolin-4(3H)-one] |
| ≤ 10 | O=c1c2ccccc2nc(-c2ccc(O)nc2)n1NCc1ccc(Br)cc1 [Example 117, 3-(4-bromobenzylamino)-2-(6-hydroxypyridin-3-yl)quinazolin-4(3H)-one] |
| ≤ 10 | COc1cc(-c2nc3ccccc3c(=O)n2NCc2ccc(Cl)cc2)ccc1F [Example 73, 3-(4-chlorobenzylamino)-2-(4-fluoro-3-methoxyphenyl)quinazolin-4(3H)-one] |
| ≤ 10 | CCCN(Cc1ccc(Br)cc1)n1c(-c2ccc(F)cc2)nc2ccccc2c1=O [Example 94, 3-((4-bromobenzyl)(propyl)amino)-2-(4-fluorophenyl)quinazolin-4(3H)-one] |
| ≤ 10 | COc1cc(-c2nc3ccccc3c(=O)n2NCc2ccc(C(F)(F)F)cc2)ccc1C [Example 68, 2-(3-methoxy-4-methylphenyl)-3-(4-(trifluoromethyl)benzylamino)quinazolin-4(3H)-one] |
| ≤ 10 | COc1cc(-c2nc3ccccc3c(=O)n2NCc2ccc(Cl)cc2)ccc1Cl [Example 75, 3-(4-Chloro-benzylamino)-2-(4-chloro-3-methoxy-phenyl)-3H-quinazolin-4-one] |
| ≤ 10 | O=c1c2cc(O)ccc2nc(-c2ccc(F)cc2)n1NCc1ccc(Cl)cc1 [Example 98, 3-(4-chlorobenzylamino)-2-(4-fluorophenyl)-6-hydroxyquinazolin-4(3H)-one] |
| ≤ 10 | O=c1c2cccc(O)c2nc(-c2ccc(F)cc2)n1NCc1ccc(Cl)cc1 [Example 114, 3-(4-chlorobenzylamino)-2-(4-fluorophenyl)-8-hydroxyquinazolin-4(3H)-one] |
| ≤ 10 | O=c1c2cc(F)ccc2nc(-c2cccc(F)c2)n1NCc1ccccc1 [Example 103, 3-(benzylamino)-6-fluoro-2-(3-fluorophenyl)quinazolin-4(3H)-one] |
| ≤ 10 | COc1cc(-c2nc3ccccc3c(=O)n2NCc2ccc(Br)cc2)ccc1F [Example 72, 3-(4-bromobenzylamino)-2-(4-fluoro-3-methoxyphenyl)quinazolin-4(3H)-one] |
| ≤ 10 | COc1cc(-c2nc3ccccc3c(=O)n2NCc2ccc(F)c(F)c2)ccc1C [Example 69, 3-(3,4-difluorobenzylamino)-2-(3-methoxy-4-methylphenyl)quinazolin-4(3H)-one] |
| ≤ 10 | COc1cc(-c2nc3ccccc3c(=O)n2NCc2ccc(Cl)cc2)ccc1O [Example 100, 3-(4-chlorobenzylamino)-2-(4-hydroxy-3-methoxyphenyl)quinazolin-4(3H)-one] |
| ≤ 10 | O=c1c2ccccc2nc(-c2cccs2)n1N(Cc1ccc(C(F)(F)F)cc1)Cc1ccc(C(F)(F)F)cc1 [Example 88, 3-(bis(4-(trifluoromethyl)benzyl)amino)-2-(thiophen-2-yl)quinazolin-4(3H)-one] |
| > 10 | COc1cc2nc(-c3ccc(F)cc3)n(NCc3ccc(Br)cc3)c(=O)c2cc1OC [Example 83, 3-(4-bromobenzylamino)-2-(4-fluorophenyl)-6,7-dimethoxy-quinazolin-4(3H)-one] |
| ≤ 10 | COc1cc(-c2nc3ccccc3c(=O)n2NCc2ccc(F)cc2)ccc1C [Example 67, 3-(4-fluorobenzylamino)-2-(3-methoxy-4-methylphenyl)quinazolin-4(3H)-one] |

Second part, the molecule before the results:

| SMILES | EC50 [µM] |
| --- | --- |
| O=c1c2ccccc2nc(-c2ccccc2Cl)n1NCc1ccc(Br)cc1 [Example 10, 3-(4-bromobenzylamino)-2-(2-chlorophenyl)quinazolin-4(3H)-one] | ≤ 10 |
| Cc1ccc2c(=O)n(NCc3ccc(F)cc3F)c(-c3ccccc3F)nc2c1 [Example 25, 3-(2,4-difluorobenzylamino)-2-(2-fluorophenyl)-7-methylquinazolin-4(3H)-one] | ≤ 10 |
| O=c1c2ccccc2nc(-c2ccc(F)cc2)n1NCc1ccc2ccccc2c1 [Example 38, 2-(4-fluorophenyl)-3-(naphthalen-2-ylmethylamino)quinazolin-4(3H)-one] | ≤ 10 |
| COc1ccc2c(=O)n(NCc3ccc(C(F)(F)F)cc3)c(-c3ccc(F)cc3)nc2c1 [Example 36, 2-(4-fluorophenyl)-7-methoxy-3-(4-(trifluoromethyl)benzylamino)quinazolin-4(3H)-one] | > 10 |
| CC(C)c1ccc(CNn2c(-c3ccc(F)cc3)nc3ccccc3c2=O)cc1 [Example 2, 2-(4-fluorophenyl)-3-(4-isopropylbenzylamino)quinazolin-4(3H)-one] | > 10 |
| O=c1c2ccccc2nc(-c2cccc(Cl)c2)n1NCc1ccc(F)c(F)c1 [Example 50, 2-(3-chlorophenyl)-3-(3,4-difluorobenzylamino)quinazolin-4(3H)-one] | ≤ 10 |
| O=c1c2ccccc2nc(-c2ccccc2F)n1NCc1ccc(C(F)(F)F)c(F)c1 [Example 21, 3-(3-fluoro-4-(trifluoromethyl)benzylamino)-2-(2-fluorophenyl)quinazolin-4(3H)-one] | ≤ 10 |
| O=c1c2ccccc2nc(-c2ccccc2F)n1NCc1ccc(OC(F)(F)F)cc1 [Example 23, 2-(2-fluorophenyl)-3-(4-(trifluoromethoxy)benzylamino)quinazolin-4(3H)-one] | ≤ 10 |
| O=c1c2ccccc2nc(-c2ccc(Cl)cc2)n1NCc1ccc(Cl)cc1 [Example 51, 3-(4-chlorobenzylamino)-2-(4-chlorophenyl)quinazolin-4(3H)-one] | ≤ 10 |
| Cc1ccccc1-c1nc2ccccc2c(=O)n1NCc1ccc(Br)cc1 [Example 15, 3-(4-bromobenzylamino)-2-o-tolylquinazolin-4(3H)-one] | ≤ 10 |
| O=c1c2ccccc2nc(-c2ccccc2F)n1NCc1cccc(Br)c1 [Example 3, 3-(3-bromobenzylamino)-2-(2-fluorophenyl)quinazolin-4(3H)-one] | ≤ 10 |
| O=c1c2ccccc2nc(-c2cccc(F)c2)n1NCc1ccc(F)cc1F [Example 7, 3-(2,4-difluorobenzylamino)-2-(3-fluorophenyl)quinazolin-4(3H)-one] | ≤ 10 |
| O=c1c2ccccc2nc(-c2ccc(C(F)(F)F)cc2)n1NCc1ccc(Br)cc1 [Example 9, 3-(4-bromobenzylamino)-2-(4-(trifluoromethyl)phenyl)quinazolin-4(3H)-one] | ≤ 10 |
| O=c1c2ccccc2nc(-c2ccccc2F)n1NCc1ccc(Cl)cc1Cl [Example 4, 3-(2,4-dichlorobenzylamino)-2-(2-fluorophenyl)quinazolin-4(3H)-one] | ≤ 10 |
| O=c1c2ccccc2nc(-c2cccc(Cl)c2)n1NCc1ccc(Br)cc1 [Example 46, 3-(4-bromobenzylamino)-2-(3-chlorophenyl)quinazolin-4(3H)-one] | ≤ 10 |
| O=c1c2ccccc2nc(-c2ccc(F)cc2)n1NCc1cccnc1 [Example 37, 2-(4-fluorophenyl)-3-(pyridin-3-ylmethylamino)quinazolin-4(3H)-one] | > 10 |

From US20090035306A1 (KALYPSYS, INC., priority 2006, published 2009)
